Reference: patent publication US11344510B2, “Arylcyclohexylamine derivatives and their use in the treatment of psychiatric disorders” (Gilgamesh Pharmaceuticals, Inc., priority 2019, dated 2022)
“Also recorded” adds a separate entry of the source.

What was measured:
[1] = test system: T1, monoamine transporters, MATs (SERT, NET, DAT, VMAT2); test: Monoamine uptake inhibition, monoamine transporters collectively; assay type: cell-based; details: uptake inhibition
T1 construct: rows headed: activity at MATs; stably transfected cells expressing the MAT of interest (HEK293 cells for SERT and NET)
Procedure: The ability of the compounds of the present invention to inhibit uptake of monoamines by the serotonin transporter (SERT), norepinephrine transporter (NET), dopamine transporter (DAT), and vesicular monoamine transporter 2 (VMAT2) (collectively monoamine transporters, MATs) was measured using fluorescent substrate uptake assays in transfected cells (Table 14). The binding affinities of select compounds were also determined in radioligand displacement assays at SERT, NET, and/or DAT (Table 14).
Uptake Inhibition. The ability of test compounds to block monoamine uptake by SERT, NET, DAT, and VMAT2 was determined using the Neurotransmitter Transporter Uptake Assay Kit manufactured by Molecular Devices (Cat #R8173). Briefly, stably transfected cells expressing the MAT of interest (HEK293 cells for SERT and NET; CHO cells for DAT) were grown and plated into 384-well plates at a concentration of 20,000 cells per well. Plates were then incubated for 16-20 h at 37° C. and 5% CO2. The medium was then aspirated and replaced with 25 μL of assay buffer (20 mM HEPES in HBSS, containing 0.1% BSA) containing the test compounds at the appropriate concentrations. Plates were then centrifuged at 300 rpm for 15 s and then incubated at 37° C. for 30 minutes. At this time, 25 μL of the proprietary fluorescent dye solution was added, the plates were incubated at 37° C. for 60 minutes, and then fluorescence was quantified on a plate reader (excitation wavelength=440 nm, emission wavelength=520 nm). The proprietary dye solution contains a mixture of 1) a fluorescent dye that mimics the endogenous substrates of MATs and is thereby actively transported to the intracellular compartment in the absence of an inhibitor and 2) a masking dye that inhibits the fluorescence of dye 1 in the extracellular compartment. Therefore, the overall fluorescence of the system increases as the fluorescent dye is transported into the cells.

[2] = HLM stability (High Activity); assay type: in vitro ADME; details: both sexes, human, liver microsomes, pH 7.4, Condition 2 (High Activity), 1.0 mg protein/mL
In short: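 Pooled male and female human liver microsomes, 1.0 mg protein/mL, in 100 mM PBS pH 7.4 with NADPH-regenerating system; compound 1 μM at 37° C, five time points over 60 min. Parent remaining by LC-MS/MS; kel, t1/2 and Clint from linear regression of ln(AUC) versus time.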

[3] = MLM stability (High Activity); assay type: in vitro ADME, BALB/c mice; details: male, BALB/c, mouse, liver microsomes, pH 7.4, Condition 2 (High Activity), 1.0 mg protein/mL
In short: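 Pooled male BALB/c mouse liver microsomes (1.0 mg/mL) in 100 mM PBS pH 7.4 with NADPH-regenerating system; compound 1 μM, 37 °C, five time points over 60 min, duplicate; NADPH-free controls. Parent remaining by LC-MS/MS; kel, t1/2 and Clint from linear regression of ln(AUC) versus time.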

[4] = RLM stability (High Activity); assay type: in vitro ADME, Sprague Dawley rats
Procedure: (§1) RLM Stability (High Activity). Pooled RLM from male Sprague Dawley rats (XenoTech R1000, lot #1910100) were used. Microsomal incubations were carried out in 96-well plates in 5 aliquots of 40 μL each (one for each time point). Liver microsomal incubation medium consisted of PBS (100 mM, pH 7.4), MgCl2 (3.3 mM), NADPH (3 mM), glucose-6-phosphate (5.3 mM), and glucose-6-phosphate dehydrogenase (0.67 units/mL), with 1.0 mg of liver microsomal protein per mL. Control incubations were performed by replacing the NADPH-cofactor system with PBS. Test compounds (1 μM, final solvent concentration 1.6%) were incubated with microsomes at 37° C., shaking at 100 rpm. Incubations were performed in duplicate. Five time points over 60 minutes were analyzed. The reactions were stopped by adding 9 volumes of 90% acetonitrile-water to incubation aliquots, followed by protein sedimentation by centrifugation at 5500 rpm for 3 minutes. Supernatants were analyzed for parent compound remaining using a fit-for-purpose liquid chromatography-tandem mass spectrometry (LC-MS/MS) method, with authentic samples of each analyte used for identity confirmation.
Data Analysis. The elimination constant (kel), half-life (t1/2) and intrinsic clearance (Clint) were determined in a plot of […] versus time, using linear regression analysis.

[5] = Formation of metabolites 11R/11S in RLM (High Activity conditions); assay type: in vitro ADME, Sprague Dawley rats; details: LC-MS/MS
Procedure: as §1, with “The reactions were stopped by adding 9 volumes of 90% acetonitrile-water to incubation aliquots, followed by protein sedimentation by centrifugation at 5500 rpm for 3 minutes.” left out
This condition was also used for experiments measuring the formation of metabolite 11R from compounds 14R and 88R and formation of metabolite 11S from compounds 14S and 88S. The concentrations of 11R and 11S formed during the incubations were quantified using a fit-for-purpose liquid chromatography-tandem mass spectrometry (LC-MS/MS) method, with authentic samples of each analyte used for calibration and identity confirmation.

[6] = biological target: MK-801 binding site of the N-methyl-D-aspartate receptor (NMDAR); test: NMDAR radioligand binding with [3H]MK-801, Method B; design: species or system Sprague Dawley rat; details: MK-801 site, Method B, male Sprague Dawley rat cortex, 5.0 nM [3H]MK-801; read-out: NMDAR Ki ± SEM
Procedure: Radioligand Binding—Method B. Affinity of the test compounds for NMDAR was determined in radioligand binding experiments with [^3H]MK-801 by WuXi AppTec (Hong Kong) Limited, under the conditions described in Table 13.

[7] = biological target: T2, serotonin transporter (SERT) (Homo sapiens, UniProt P31645); test: Fluorescent substrate uptake inhibition, SERT; assay type: cell-based; details: 10 μM, HEK293 cells expressing SERT
T2 construct: expressed in transfected cells; host or cells: HEK293
T2 sequence (P31645 whole entry, species assumed): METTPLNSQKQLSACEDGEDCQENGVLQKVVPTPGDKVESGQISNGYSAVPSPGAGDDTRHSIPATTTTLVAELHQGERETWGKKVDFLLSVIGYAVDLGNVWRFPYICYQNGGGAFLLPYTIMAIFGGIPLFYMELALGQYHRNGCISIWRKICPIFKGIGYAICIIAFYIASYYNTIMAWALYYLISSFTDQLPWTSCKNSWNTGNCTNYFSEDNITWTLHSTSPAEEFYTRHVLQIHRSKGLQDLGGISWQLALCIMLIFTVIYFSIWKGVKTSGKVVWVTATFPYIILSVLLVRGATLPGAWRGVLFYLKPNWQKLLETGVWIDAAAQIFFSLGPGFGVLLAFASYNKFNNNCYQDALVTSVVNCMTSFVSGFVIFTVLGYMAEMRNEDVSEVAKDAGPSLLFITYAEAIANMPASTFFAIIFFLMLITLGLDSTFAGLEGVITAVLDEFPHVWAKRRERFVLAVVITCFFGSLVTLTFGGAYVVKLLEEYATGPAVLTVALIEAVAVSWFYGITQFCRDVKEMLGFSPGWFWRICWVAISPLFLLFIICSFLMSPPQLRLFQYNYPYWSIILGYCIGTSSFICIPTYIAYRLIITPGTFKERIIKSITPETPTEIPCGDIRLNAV

[8] = biological target: T3, norepinephrine transporter (NET) (Homo sapiens, UniProt P23975); test: Fluorescent substrate uptake inhibition, NET; assay type: cell-based; details: 10 μM, HEK293 cells expressing NET
T3 construct: expressed in transfected cells; host or cells: HEK293
T3 sequence (P23975 whole entry, species assumed): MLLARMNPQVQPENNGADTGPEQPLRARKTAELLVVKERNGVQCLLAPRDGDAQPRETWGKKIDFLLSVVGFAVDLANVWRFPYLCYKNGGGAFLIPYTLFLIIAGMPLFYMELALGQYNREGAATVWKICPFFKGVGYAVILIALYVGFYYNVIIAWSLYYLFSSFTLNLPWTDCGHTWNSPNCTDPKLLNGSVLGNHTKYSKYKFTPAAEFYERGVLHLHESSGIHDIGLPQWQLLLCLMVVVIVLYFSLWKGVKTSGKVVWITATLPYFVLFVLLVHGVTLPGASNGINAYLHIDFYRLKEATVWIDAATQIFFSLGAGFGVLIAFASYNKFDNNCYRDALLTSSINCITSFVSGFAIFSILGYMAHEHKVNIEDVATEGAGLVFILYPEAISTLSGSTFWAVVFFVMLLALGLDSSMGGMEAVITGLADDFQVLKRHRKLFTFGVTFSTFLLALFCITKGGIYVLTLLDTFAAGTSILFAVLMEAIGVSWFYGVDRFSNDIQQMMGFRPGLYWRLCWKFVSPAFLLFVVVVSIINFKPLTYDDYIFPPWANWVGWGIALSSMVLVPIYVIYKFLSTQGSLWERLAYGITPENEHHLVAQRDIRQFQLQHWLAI

[9] = biological target: T4, dopamine transporter (DAT) (Homo sapiens, UniProt Q01959); test: Fluorescent substrate uptake inhibition, DAT; assay type: cell-based; details: 10 μM, CHO cells expressing DAT
T4 construct: expressed in transfected cells; host or cells: CHO (uptake)
T4 sequence (Q01959 whole entry, species assumed): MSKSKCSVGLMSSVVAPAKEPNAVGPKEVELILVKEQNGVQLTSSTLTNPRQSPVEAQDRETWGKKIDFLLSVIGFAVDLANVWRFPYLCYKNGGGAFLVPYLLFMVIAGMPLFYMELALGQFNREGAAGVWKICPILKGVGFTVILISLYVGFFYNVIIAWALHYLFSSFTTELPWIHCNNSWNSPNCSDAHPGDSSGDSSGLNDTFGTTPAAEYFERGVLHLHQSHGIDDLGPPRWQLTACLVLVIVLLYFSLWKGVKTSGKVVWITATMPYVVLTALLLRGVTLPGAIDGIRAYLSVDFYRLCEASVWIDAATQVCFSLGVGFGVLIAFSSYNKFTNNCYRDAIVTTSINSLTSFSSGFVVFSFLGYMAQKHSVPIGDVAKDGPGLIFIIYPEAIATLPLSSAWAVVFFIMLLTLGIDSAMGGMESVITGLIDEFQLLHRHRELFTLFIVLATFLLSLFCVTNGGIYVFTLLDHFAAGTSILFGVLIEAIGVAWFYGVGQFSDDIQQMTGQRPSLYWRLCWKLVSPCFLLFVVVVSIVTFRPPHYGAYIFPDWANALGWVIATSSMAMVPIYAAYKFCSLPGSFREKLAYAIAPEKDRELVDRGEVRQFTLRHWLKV

[10] = biological target: T5, vesicular monoamine transporter 2 (VMAT2) (Homo sapiens, UniProt Q05940); test: Fluorescent substrate uptake inhibition, VMAT2; assay type: cell-based; details: 10 μM, transfected cells
T5 construct: expressed in transfected cells
T5 sequence (Q05940 whole entry, species assumed): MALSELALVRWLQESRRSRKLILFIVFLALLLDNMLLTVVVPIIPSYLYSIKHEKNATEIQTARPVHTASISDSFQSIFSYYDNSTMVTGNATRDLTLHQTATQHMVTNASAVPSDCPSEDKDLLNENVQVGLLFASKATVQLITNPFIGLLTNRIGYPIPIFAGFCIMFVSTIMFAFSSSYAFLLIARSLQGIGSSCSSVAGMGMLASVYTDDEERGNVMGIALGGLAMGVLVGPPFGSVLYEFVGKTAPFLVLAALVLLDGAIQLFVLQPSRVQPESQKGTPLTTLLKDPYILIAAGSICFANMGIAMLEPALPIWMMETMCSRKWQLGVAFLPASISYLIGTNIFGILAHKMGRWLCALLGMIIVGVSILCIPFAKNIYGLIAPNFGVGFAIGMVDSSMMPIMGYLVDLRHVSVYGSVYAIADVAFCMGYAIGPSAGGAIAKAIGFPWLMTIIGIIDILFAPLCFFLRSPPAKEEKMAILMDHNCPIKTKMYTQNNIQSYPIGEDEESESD

[11] = male, Sprague Dawley, rat, liver microsomes, pH 7.4, Condition 2 (High Activity), 1 μM, 1.0 mg protein/mL

| SMILES | activity at MATs [1] | half-life at 1 μM [2] | microsomal CLint at 1 μM [2] | half-life at 1 μM [3] | microsomal CLint at 1 μM [3] | metabolic stability compared to non-deuterated counterparts 14R and 14S ([4]; High Activity) | half-life at 1 μM [4, 11] | microsomal CLint at 1 μM [4, 11] | formation of metabolites 11R and 11S compared to non-deuterated counterparts [5] | Ki [6] | inhibition at 10 µM [7] | inhibition at 10 µM [8] | inhibition at 10 µM [9] | inhibition at 10 µM [10] |
| --- | --- | --- | --- | --- | --- | --- | --- | --- | --- | --- | --- | --- | --- | --- |
| O=C1CCCCC1(c1ccccc1)N1CCOCC1 (centres unmarked) [Compound 31] | almost no activity | – | – | – | – | – | – | – | – | – | – | – | – | – |
| [2H]C([2H])([2H])N[C@]1(c2ccccc2)CCCCC1=O [Compound 88S, (S)-2-((methyl-d3)amino)-2-phenylcyclohexan-1-one] | – | 2.78 h | 4 µL/min/mg | 1.86 h | 6 µL/min/mg | increased metabolic stability | 0.88 h | 13 µL/min/mg | attenuated formation; also recorded: decreased formation | 800 nM | 28.2% | 21.6% | 18.6% | -6% |
